# EPA's ToxValDB 9.5
# “And” between values parts separate entries of the source, which are not always exact repeats. Identical values can stand only once.
# Tests used:
# Rattus norvegicus [1] = conditions: short-term; duration: 28 days; oral; gavage; M/F; Sprague-Dawley; Urinalysis: N/A(measured only 16h volume) + Absolute Organ Weight: Liver increase + Relative Organ Weight: Liver increase + Necropsy: Kidney…
# Rattus norvegicus [2] = conditions: for LC50 / LD50: acute
# Cricetulus sp. = conditions: acute; oral; Chinese
# Canidae [3] = conditions: subchronic; duration: 3 months; oral; diet; Beagle
# Mus musculus [4] = conditions: for NOAEL: duration: 10 days, NMRI; for LD50 / LC50: acute
# Oryctolagus sp. = conditions: dermal; for LD50: acute
# Mus musculus [5] = experiment: LD0; higher = less toxic; conditions: acute; oral
# Mus musculus [6] = conditions: repeat dose other; oral
# Coturnix japonica = conditions: repeat dose other; oral
# Rattus norvegicus [7] = conditions: chronic, oral, diet; for NOAEL: M, Wistar, immunological
# Rattus norvegicus [8] = experiment: LC0; higher = less toxic; conditions: acute; inhalation
# Gallus sp. = conditions: developmental; duration: 5 days; injection; White Leghorn
# Canidae [9] = conditions: chronic; duration: 16 months; oral; diet; M/F; Beagle; Urinary
# Rattus norvegicus [10] = conditions: chronic; oral; diet; M/F; liver toxicity
# Rattus norvegicus [11] = conditions: repeat dose other; oral
# Mus musculus [12] = conditions: developmental; duration: 7 days; oral; gavage; M/F; ICR; developmental
# Cavia porcellus = conditions: acute; Inhalation; Guinea Pig
# Cavia sp. = conditions: acute; Inhalation; Harley
# [13] = chronic, duration: 24 months, oral, diet, Sprague-Dawley
# [14] = reproduction developmental, oral, diet, Sprague-Dawley, generation: F0
# [15] = reproduction developmental, oral, diet, Sprague-Dawley, generation: F1
# [16] = reproduction developmental, oral, diet, Sprague-Dawley, generation: F2
# [17] = subchronic, duration: 8 weeks, oral, diet, Sprague-Dawley
# [18] = subchronic, duration: 90 days, oral, diet
# [19] = subchronic, duration: 3 months, oral, diet
compound,measurement,setting,value
"CCCCCCCCCCCCCCCCCCOC(=O)CCc1cc(C(C)(C)C)c(O)c(C(C)(C)C)c1 [Octadecyl 3-(3,5-di-tert-butyl-4-hydroxyphenyl)propionate]",NOAEL,Rattus norvegicus [1],30 mg/kg-day
same,LC50,Rattus norvegicus [2]; inhalation,> 1.8 µg/mL
same,LC50,"Rattus norvegicus [2]; inhalation, particle",> 1.8 µg/mL
same,LD50,"Rattus norvegicus [2]; injection, Intraperitoneal",> 1000 mg/kg
same,LD50,"Rattus norvegicus [2]; injection, intraperitoneal",> 1000 mg/kg
same,LD50,Rattus norvegicus [2]; oral,> 5000 mg/kg
same,NOAEL,"Rattus norvegicus [2]; chronic, duration: 104 weeks, oral, diet, Cfy",39 mg/kg-day
same,NOAEL,"Rattus norvegicus [2]; developmental, duration: 10 days, oral, gavage, Sprague-Dawley",> 1000 mg/kg-day
same,LOAEL,"Rattus norvegicus [2]; developmental, oral, diet",500 ppm
same,NOAEL,"Rattus norvegicus [2]; reproduction developmental, duration: 10 months, oral, diet, COBS(R)CD(R), generation: F0",1500 ppm
same,NOAEL,"Rattus norvegicus [2]; reproduction developmental, duration: 10 months, oral, diet, COBS(R)CD(R), generation: F1",< 500 ppm
same,NOAEL,"Rattus norvegicus [2]; reproduction developmental, duration: 10 months, oral, diet, COBS(R)CD(R), generation: F2",< 500 ppm
same,NOAEL,"Rattus norvegicus [2]; reproduction developmental, duration: 10 days, oral, gavage, F, Sprague-Dawley",150 mg/kg-day
same,NOAEL,"Rattus norvegicus [2]; reproduction developmental, duration: 10 days, oral, gavage, generation: F0",150 mg/kg-day
same,NOAEL,"Rattus norvegicus [2]; reproduction developmental, oral, diet, F",1500 ppm
same,NOAEL,"Rattus norvegicus [2]; reproduction developmental, oral, diet, generation: F0",1500 ppm
same,NOAEL,"Rattus norvegicus [2]; short-term, duration: 21 days, inhalation, RAI f (SPF)",> 0.543 mg/L
same,NOAEL,"Rattus norvegicus [2]; short-term, duration: 28 days, oral, diet, F",1000 mg/kg-day
same,NOAEL,"Rattus norvegicus [2]; short-term, duration: 28 days, oral, diet, M",100 mg/kg-day
same,NOAEL,"Rattus norvegicus [2]; short-term, duration: 28 days, oral, gavage, Sprague-Dawley",30 mg/kg-day
same,LD50,Cricetulus sp.,> 6000 mg/kg
same,NOAEL,Canidae [3],≥ 31.5 mg/kg-day and ≤ 34.5 mg/kg-day
same,NOAEL,"Mus musculus [4]; developmental, oral, gavage",> 1000 mg/kg-day
same,NOAEL,"Mus musculus [4]; reproduction developmental, oral, gavage, F",500 mg/kg-day
same,LD50,Oryctolagus sp.,> 2000 mg/kg
O=C(Nc1ccc(Cl)cc1)Nc1ccc(Cl)c(Cl)c1 [Triclocarban],LD0,Mus musculus [5],> 5000 mg/kg
same,LD50,"Rattus norvegicus [2]; oral, gavage, Sprague-Dawley",> 50100 mg/kg
same,LOAEL,Rattus norvegicus [2]; [13],75 mg/kg-day
same,NOAEL,Rattus norvegicus [2]; [13],25 mg/kg-day
same,NOAEL,"Rattus norvegicus [2]; developmental, oral, diet, Sprague-Dawley",> 3000 ppm
same,NOAEL,"Rattus norvegicus [2]; reproduction developmental, oral, diet, F, Sprague-Dawley",> 3000 ppm
same,NOAEL,Rattus norvegicus [2]; [14],3000 ppm
same,NOAEL,Rattus norvegicus [2]; [15],1000 ppm
same,NOAEL,Rattus norvegicus [2]; [16],3000 ppm
same,LOAEL,Rattus norvegicus [2]; [17],250 mg/kg-day
same,NOAEL,Rattus norvegicus [2]; [17],75 mg/kg-day
same,LD50,"Mus musculus [4]; injection, Intraperitoneal",2100 mg/kg
same,LD50,"Oryctolagus sp.; occlusive, New Zealand",> 10000 mg/kg
CCC[CH2][Sn]([CH2]CCC)([CH2]CCC)[O][Sn]([CH2]CCC)([CH2]CCC)[CH2]CCC [Bis(tributyltin)oxide],LOAEL,Mus musculus [6],35 mg/kg-day
same,NOAEL,Mus musculus [6],23.4 mg/kg-day
same,LOAEL,Coturnix japonica,16.9 mg/kg-day
same,NOAEL,Coturnix japonica,6.8 mg/kg-day
same,NOAEL,Rattus norvegicus [7]; duration: 6 months,0.025 mg/kg-day
same,NOAEL,Rattus norvegicus [7]; duration: 18 months,0.025 mg/kg-day
"FC(F)(F)C(F)(Cl)Cl [1,1-Dichlorotetrafluoroethane]",LC0,Rattus norvegicus [8],> 1.07e+06 mg/m3
same,NOAEL,"Rattus norvegicus [2]; short-term, duration: 2 weeks, inhalation, M, Crl:CDABR",289000 mg/m3
CCCCCCCCCc1ccc(OP(Oc2ccc(CCCCCCCCC)cc2)Oc2ccc(CCCCCCCCC)cc2)cc1 [Nonylphenolphosphite(3:1)],LD50,"Rattus norvegicus [2]; dermal, semiocclusive, RAI f1",> 2000 mg/kg
same,LD50,"Rattus norvegicus [2]; injection, Intraperitoneal, RAI f1",> 1000 mg/kg
same,NOAEL,"Rattus norvegicus [2]; developmental, duration: 4 weeks, oral, gavage, Sprague-Dawley",1000 mg/kg-day
same,NOAEL,"Rattus norvegicus [2]; reproduction developmental, duration: 2 years, oral, diet, generation: F1",3300 ppm
same,NOAEL,"Rattus norvegicus [2]; reproduction developmental, duration: 4 weeks, oral, gavage, F, Sprague-Dawley",1000 mg/kg-day
same,NOAEL,"Rattus norvegicus [2]; reproduction developmental, duration: 4 weeks, oral, gavage, M, Sprague-Dawley",200 mg/kg-day
same,NOAEL,"Rattus norvegicus [2]; reproduction developmental, duration: 4 weeks, oral, gavage, Sprague-Dawley, generation: F0",200 mg/kg-day
same,NOAEL,"Rattus norvegicus [2]; reproduction developmental, duration: 4 weeks, oral, gavage, Sprague-Dawley, generation: F1",200 mg/kg-day
same,NOAEL (% diet),"Rattus norvegicus [2]; subchronic, duration: 12 weeks, oral, diet",1
same,LOAEL (% diet),Rattus norvegicus [2]; [18],5
same,NOAEL (% diet),Rattus norvegicus [2]; [18],1
same,NOAEL,Gallus sp.,5 mg
same,LD50,"Mus musculus [4]; oral, gavage",> 10000 mg/kg
same,LD50,"Oryctolagus sp.; semiocclusive, New Zealand",> 2000 mg/kg
ClC1=C(Cl)[C@]2(Cl)[C@H]3[C@H]([C@@H]4C=C[C@H]3C4)[C@@]1(Cl)C2(Cl)Cl [Aldrin],LOAEL,Canidae [9],0.043 mg/kg-day
same,LOAEL,Rattus norvegicus [10],0.025 mg/kg-day
same,LOAEL,Rattus norvegicus [11],1 mg/kg-day
same,NOAEL,Rattus norvegicus [11],0.2 mg/kg-day
same,LOAEL,"Rattus norvegicus [7]; duration: 2 years, M/F, Osborne-Mendel, hepatic",0.037 mg/kg-day
same,LOAEL,Mus musculus [12],2 mg/kg-day
CCC(C)(CCC(C)C)C(=O)O (stereo not given) [Neodecanoic acid],LC50,"Rattus norvegicus [2]; Inhalation, Wistar",> 511 mg/m3
same,LD50,"Rattus norvegicus [2]; Inhalation, Wistar",> 511 mg/m3
same,LC50,"Rattus norvegicus [2]; inhalation, Wistar",> 3 µg/mL
same,LD50,"Rattus norvegicus [2]; inhalation, Wistar",> 3 mg/L
same,NOAEL,Rattus norvegicus [2]; [14],1500 ppm
same,NOAEL,Rattus norvegicus [2]; [15],1500 ppm
same,NOAEL,Rattus norvegicus [2]; [16],1500 ppm
same,LOAEL,Rattus norvegicus [2]; [19],144 mg/kg-day
same,NOAEL,Rattus norvegicus [2]; [19],48 mg/kg-day
same,LD50,Cavia porcellus,> 511 mg/m3
same,LD50,"Mus musculus [4]; Inhalation, Swiss",> 511 mg/m3
same,LC50,"Mus musculus [4]; Inhalation, Swiss albino",> 511 mg/m3
same,LC50,"Mus musculus [4]; inhalation, Swiss",> 3 µg/mL
same,LD50,"Mus musculus [4]; inhalation, Swiss",> 3 mg/L
same,LD50,Oryctolagus sp.,> 3160 mg/kg
same,LD50,Oryctolagus sp.; occlusive,> 3160 mg/kg
same,NOAEL,"Oryctolagus sp.; repeat dose other, M",2280 mg/kg-day
same,LC50,Cavia sp.,> 511 mg/m3
same,LD50,Cavia sp.,> 511 mg/m3
